{"source": "patent US20250170252A1", "about": "“QUINONE PROTECTED FORMS AND CONJUGATES” (CAMBRIDGE ENTERPRISE LIMITED, priority 2022, published 2025)", "key": {"[1]": {"test": "Glucuronide kinetics assay (release of β-lapachone after β-glucuronide deprotection)", "type": "physicochemical", "conditions": "pH 7, 37° C., after β-glucuronide deprotection; first experiments", "method": "(§1) Glucuronide prodrug (37a, b, c, d) was dissolved in DMSO to a concentration of 10 mM. A 100 mM stock solution of warfarin in DMSO was also prepared. To obtain deprotected para-hydroxybenzyl ketol species, the glucuronide stock solution was dissolved in PBS with 16.7% DMF to a concentration of 1.7 mM. 15 μL of a stock solution of R-glucuronidase from E. coli K-12 (Roche #03707580001, 140 U/mL) was added to 900 μL of this stock and incubated for 20 min at 37° C. 15 μL of a 100 mM stock of warfarin internal standard in DMSO was added. Reactions were then set up immediately. For a reaction, 30 μL of the amino-benzyl ketol/standard stock was added to 195 μL of citrate-phosphate buffer at the specified pH. Test samples were incubated at 37° C. with shaking. At the recorded time points, 20 μL aliquots of the reactions were analysed by HPLC (254 nm, Agilent 1260 Infinity). HPLC conditions: column Agilent InfinityLab Poroshell 120 SB—C18 2.7 μm, 50×4.6 mm; solvent system A=H2O+0.1% TFA, B=acetonitrile+0.1% TFA; flow=1 mL/min. Gradient: t=0-1 min 0% B, t=1-2 min 0-30% B, t=2-17 min 30-40% B, t=17-17.1 min 40-100% B, t=17.1-18 min 100% B, t=18-23 min 0% B. Relative peak area represents raw peak area (mAU*s) normalized to raw peak area of the warfarin internal standard. Values recorded are averages of three independent reactions and error bars display standard error of the mean. Values were fitted to first-order kinetics using GraphPad Prism 9 software. A positive control experiment was performed under identical conditions with known substrate 4-nitrophenyl-β-D-glucuronide (Sigma Aldrich) to confirm enzyme activity."}, "[2]": {"test": "Stability of glucuronide prodrug to incubation at pH 7.4 at 37° C.", "type": "physicochemical", "conditions": "pH 7.4, 37° C., 6 days; no β-lapachone observed", "method": "An experiment testing the stability of compound 37a to incubation at pH 7.4 at 37° C. was also performed."}, "β-glucuronidase": {"target": "T1, β-glucuronidase (Escherichia coli, UniProt P05804)", "T1 construct": "purchased Roche 03707580001", "T1 sequence (P05804 whole entry)": "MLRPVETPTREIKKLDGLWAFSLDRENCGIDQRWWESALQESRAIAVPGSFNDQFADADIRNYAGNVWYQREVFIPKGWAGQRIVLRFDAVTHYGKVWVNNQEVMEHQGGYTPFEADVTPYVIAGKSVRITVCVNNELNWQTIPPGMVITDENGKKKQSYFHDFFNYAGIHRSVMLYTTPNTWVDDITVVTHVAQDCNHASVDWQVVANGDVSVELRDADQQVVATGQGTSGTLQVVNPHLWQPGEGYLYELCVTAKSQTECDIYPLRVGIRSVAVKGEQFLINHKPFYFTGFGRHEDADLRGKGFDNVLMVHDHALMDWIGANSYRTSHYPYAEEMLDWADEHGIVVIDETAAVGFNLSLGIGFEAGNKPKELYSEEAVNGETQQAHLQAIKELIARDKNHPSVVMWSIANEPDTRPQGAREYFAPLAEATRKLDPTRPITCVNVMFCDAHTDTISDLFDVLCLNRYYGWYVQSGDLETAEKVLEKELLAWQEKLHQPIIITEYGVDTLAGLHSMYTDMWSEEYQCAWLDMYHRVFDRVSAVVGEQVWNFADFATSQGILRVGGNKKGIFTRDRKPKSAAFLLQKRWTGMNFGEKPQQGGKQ", "test": "Incubation with β-glucuronidase (sugar deprotection)", "type": "biochemical, E. coli K-12", "conditions": "pH 7.4, 37° C.", "method": "as §1, with “Values were fitted to first-order kinetics using GraphPad Prism 9 software. A positive control experiment was performed under identical conditions with known substrate 4-nitrophenyl-β-D-glucuronide (Sigma Aldrich) to confirm enzyme activity.” left out"}, "range of cell lines": {"tested_on": "range of cell lines", "test": "Toxicity of Gluc-PHB-BL against a range of cell lines with and without added β-glucuronidase", "type": "cell-based", "method": "(§2) Assays assessing cytotoxicity of β-lapachone and derivatives were performed by CellTiter-Blue assay (Promega) according to the manufacturer's instructions. Briefly, adherent cancer-cell lines were plated at 20,000 cells/well in 96 well plates or suspension cell lines were plated at a concentration of 2×10^5 cells/mL in 24 well plates. Compound stocks in media were made by dilution of DMSO stocks containing the compound of interest to obtain a final in-plate DMSO concentration of only 0.1%. Incubation was performed for 48 h. Following incubation, media was replaced with media containing CellTiter-Blue (Promega) in 1:10 dilution and the plates were incubated for 1.5-4 h. The fluorescence of the plates was recorded (excitation 555 nm, emission 585 nm, MiniMax i3x Reader, Molecular Devices).\n(§3) Cell viability was calculated by division of the fluorescence intensity of treated wells by that of the calculated average fluorescence intensity of replicate negative control wells containing cells with 0.1% DMSO only. Values and reported error bars represent the mean and standard error of the mean of three triplicate repeats for each concentration tested. IC50 values were calculated using GraphPad Prism 8 software.\n(§4) The potential of compound 37a, glucuronide-PHB-BL, as a prodrug was investigated. As discussed above, at physiological pH the compound has a relatively slow-release rate. Toxicity of Gluc-PHB-BL 37a was tested against a range of cell lines with and without added β-glucuronidase. Addition of the enzyme mimics conditions of the solid tumour environment."}, "HeLa": {"tested_on": "HeLa", "test": "Toxicity with/without β-glucuronidase, HeLa", "type": "cell-based", "method": "as §2, §3, §4"}, "SkBr-3": {"tested_on": "SkBr-3", "test": "Toxicity with/without β-glucuronidase, SkBr-3", "type": "cell-based", "method": "as §2, §3, §4"}, "HEK-293T": {"tested_on": "HEK-293T", "test": "Toxicity with/without β-glucuronidase, HEK-293T", "type": "cell-based", "method": "as §2, §3, §4"}, "HL-60": {"tested_on": "HL-60", "test": "Toxicity with/without β-glucuronidase, HL-60", "type": "cell-based", "method": "as §2, §3, §4"}, "MOLM-13": {"tested_on": "MOLM-13", "test": "Toxicity with/without β-glucuronidase, MOLM-13", "type": "cell-based", "method": "as §2, §3, §4"}, "[3]": {"tested_on": "Panc-1 pancreatic cancer cell line", "test": "CellTiter Glo viability assay, Panc-1", "type": "cell-based", "method": "(§5) For CellTiter Glo viability assays, 10,000 cells per well were plated on Day 1 and were allowed to adhere to the plate surface for 24 hours. Optimized concentration ranges of prodrugs were determined and made via serial dilution. […] Cells were incubated with compound for 48 hours and viability was assessed on Day 4 using the CellTiter Glo Viability assay which measures metabolically active cells by quantifying the amount of ATP present.\n(§6) Panc-1 cells were obtained from Tony Kouzarides' lab in the Gurdon Institute at the University of Cambridge and put into culture at passage 10 containing DMEM media (Gibco) supplemented with 1% Pen-Strep antibiotic (Gibco), 1% L-glutamine, and 10% fetal bovine serum (FBS, sterile-filtered). Aspc-1 cells were bought commercially from the American Type Culture Collection (ATCC) and put into culture containing RPMI 1640 media (Gibco) supplemented with 1% Pen-Strep antibiotic (Gibco), 1% L-glutamine, and 20% fetal bovine serum (FBS, sterile-filtered). All cell lines were started at passage 10 and passaged every 3 days by centrifuging at 1000 rpm for 4 minutes."}, "[4]": {"tested_on": "Aspc-1 pancreatic cancer cell line", "test": "CellTiter Glo viability assay, Aspc-1", "type": "cell-based", "method": "as §5, §6"}, "[5]": {"conditions": "Homo sapiens, read-out: IC50 Gluc-PHB-BL 37a"}}, "note": "pIC50: −log10 of the molar value.", "data": [{"smiles": "CC1(C)CCC2=C(O1)c1ccccc1C(O)(Cc1ccc(O[C@@H]3O[C@H](C(=O)O)[C@@H](O)[C@H](O)[C@H]3O)cc1)C2=O", "note": "(stereo partly drawn) [Compound 37a, (2S,3S,4S,5R,6S)-3,4,5-trihydroxy-6-(4-((6-hydroxy-2,2-dimethyl-5-oxo-3,4,5,6-tetrahydro-2H-benzo[h]chromen-6-yl)methyl)phenoxy)tetrahydro-2H-pyran-2-carboxylic acid]", "values": [{"measurement": "release rate of β-lapachone, kobs", "setting": "[1]", "value": "1.09e-06", "unit": "s⁻¹"}, {"measurement": "stability to incubation", "setting": "[2]", "value": "completely stable"}, {"measurement": "sugar deprotection reaction", "setting": "β-glucuronidase", "value": "rapid"}, {"measurement": "toxicity without added β-glucuronidase", "setting": "range of cell lines; concentrations up to 100 μM, apart from HEK-293T", "value": "not seen"}, {"measurement": "times less toxic than β-lapachone 1 (comparison of estimated IC50)", "setting": "range of cell lines; treated with β-glucuronidase, 48 h", "value": "3.5-9.7 times"}, {"measurement": "IC50 (37a)/ IC50 (1)", "setting": "HeLa", "value": 9.74}, {"measurement": "pIC50", "setting": "HeLa; [5]", "value": 4.38}, {"measurement": "pIC50", "setting": "SkBr-3; Homo sapiens, SK-BR-3, read-out: IC50 Gluc-PHB-BL 37a", "value": 4.62}, {"measurement": "IC50 (37a)/ IC50 (1)", "setting": "SkBr-3; SkBr-3", "value": 8.73}, {"measurement": "IC50 (37a)/ IC50 (1)", "setting": "HEK-293T", "value": 7.18}, {"measurement": "pIC50", "setting": "HEK-293T; [5]", "value": 4.68}, {"measurement": "toxicity without added β-glucuronidase", "setting": "HEK-293T; up to 100 μM", "value": "low toxicity"}, {"measurement": "IC50 (37a)/ IC50 (1)", "setting": "HL-60; HL-60", "value": 3.51}, {"measurement": "pIC50", "setting": "HL-60; Homo sapiens, HL-60, read-out: IC50 Gluc-PHB-BL 37a", "value": 4.82}, {"measurement": "pIC50", "setting": "MOLM-13; Homo sapiens, MOLM-13, read-out: IC50 Gluc-PHB-BL 37a", "value": 4.10}, {"measurement": "IC50 (37a)/ IC50 (1)", "setting": "MOLM-13; MOLM-13", "value": 6.50}, {"measurement": "pIC50", "setting": "[3]; Homo sapiens, PANC-1, 48 h", "value": 4.98}, {"measurement": "toxicity without the β-glucuronidase enzyme", "setting": "[3]; Panc-1, up to 100 μM", "value": "no toxicity"}, {"measurement": "toxicity without the β-glucuronidase enzyme", "setting": "[4]; Aspc-1, up to 100 μM", "value": "no toxicity"}, {"measurement": "pIC50", "setting": "[4]; Homo sapiens, ASPC1, 48 h", "value": 4.76}]}]}
